# Source: ChEMBL document CHEMBL5335843, “Application of tobramycin benzyl ether as an antibiotic adjuvant capable of sensitizing multidrug-resistant Gram-negative bacteria to rifampicin” (2024)
# Active and inactive are the calls of the source. No cut-off for these calls is given here.
# Legend:
# Pseudomonas aeruginosa [1] = test: Antibiotic adjuvant activity against multi-drug resistant Pseudomonas aeruginosa clinical isolate PA262 assessed as rifampicin MIC incubated for 18 hrs in presence of Rifampicin by two fold broth microdilution checkerboard assay; format: functional
# Pseudomonas aeruginosa [2] = test: Antibiotic adjuvant activity against multi-drug resistant Pseudomonas aeruginosa clinical isolate PA101243 assessed as doxycycline MIC incubated for 18 hrs in presence of doxycycline by two fold broth microdilution checkerboard assay; format: functional
# Pseudomonas aeruginosa [3] = test: Antibiotic adjuvant activity against multi-drug resistant Pseudomonas aeruginosa clinical isolate 114228 assessed as fold potentiation incubated for 18 hrs in presence of Rifampicin by two fold broth microdilution checkerboard assay; format: functional
# Pseudomonas aeruginosa [4] = test: Antibiotic adjuvant activity against multi-drug resistant Pseudomonas aeruginosa clinical isolate PA114228 assessed as inhibition of bacterial growth incubated for 18 hrs in presence of minocycline by two fold broth microdilution checkerboard assay; format: functional
# Pseudomonas aeruginosa [5] = test: Antibiotic adjuvant activity against multi-drug resistant Pseudomonas aeruginosa clinical isolate PA264 assessed as fold potentiation incubated for 18 hrs in presence of doxycycline by two fold broth microdilution checkerboard assay; format: functional
# Pseudomonas aeruginosa [6] = test: Antibiotic adjuvant activity against multi-drug resistant Pseudomonas aeruginosa clinical isolate PA259 assessed as inhibition of bacterial growth incubated for 18 hrs in presence of minocycline by two fold broth microdilution checkerboard assay; format: functional
# Escherichia coli [7] = test: Antibiotic adjuvant activity against multi-drug resistant Escherichia coli clinical isolate 94393 assessed as fold potentiation incubated for 18 hrs in presence of Rifampicin by two fold broth microdilution checkerboard assay; format: functional
# Pseudomonas aeruginosa [8] = test: Antibacterial activity against Pseudomonas aeruginosa PAO1 assessed as inhibition of bacterial growth incubated for 18 hrs by two fold broth microdilution assay; format: functional
# Pseudomonas aeruginosa [9] = test: Antibiotic adjuvant activity against multi-drug resistant Pseudomonas aeruginosa clinical isolate PA264 assessed as rifampicin MIC incubated for 18 hrs in presence of Rifampicin by two fold broth microdilution checkerboard assay; format: functional
# Escherichia coli [10] = test: Antibiotic adjuvant activity against Escherichia coli ATCC 25922 assessed as fold potentiation incubated for 18 hrs in presence of Rifampicin by two fold broth microdilution checkerboard assay; format: functional
# Escherichia coli [11] = test: Antibiotic adjuvant activity against multi-drug resistant Escherichia coli clinical isolate EC94474 assessed as minocycline MIC incubated for 18 hrs in presence of minocycline by two fold broth microdilution checkerboard assay; format: functional
# Acinetobacter baumannii [12] = test: Antibiotic adjuvant activity against multi-drug resistant Acinetobacter baumannii clinical isolate AB027 assessed as inhibition of bacterial growth incubated for 18 hrs in presence of Rifampicin by two fold broth microdilution checkerboard assay; format: functional
# Pseudomonas aeruginosa [13] = test: Antibiotic adjuvant activity against multi-drug resistant Pseudomonas aeruginosa clinical isolate PA262 assessed as inhibition of bacterial growth incubated for 18 hrs in presence of Rifampicin by two fold broth microdilution checkerboard assay; format: functional
# Pseudomonas aeruginosa [14] = test: Antibiotic adjuvant activity against multi-drug resistant Pseudomonas aeruginosa clinical isolate PA264 assessed as fold potentiation incubated for 18 hrs in presence of minocycline by two fold broth microdilution checkerboard assay; format: functional
# Escherichia coli [15] = test: Antibacterial activity against multi-drug resistant Escherichia coli clinical isolate EC107115 assessed as inhibition of bacterial growth incubated for 18 hrs by two fold broth microdilution assay; format: functional
# Acinetobacter baumannii [16] = test: Antibiotic adjuvant activity against Acinetobacter baumannii ATCC 17978 assessed as fold potentiation at 8 to 16 ug/ml incubated for 18 hrs in presence of rifampicin and FBS media by two fold broth microdilution checkerboard assay; format: functional; conditions: dose 8-16 µg/ml
# Acinetobacter baumannii [17] = test: Antibiotic adjuvant activity against multi-drug resistant Acinetobacter baumannii clinical isolate 92247 assessed as fold potentiation incubated for 18 hrs in presence of Rifampicin by two fold broth microdilution checkerboard assay; format: functional
# Cell membrane = test: Induction of outer membrane permeabilization in Escherichia coli ATCC 25922 assessed as increase fluorescence intensity by measuring NPN uptake factor at 4 to 8 uM by fluorescence based analysis; format: subcellular; conditions: dose 4-8 µM, TDE = time-dependent effect
# Escherichia coli [18] = test: Antibiotic adjuvant activity against Escherichia coli ATCC 25922 at 8 to 11 ug/ml incubated for 18 hrs in presence of rifampicin and 25 % FBS media by two fold broth microdilution checkerboard assay; format: functional, organism-based; conditions: dose 8-11 µg/ml
# Escherichia coli [19] = test: Antibacterial activity against multi-drug resistant Escherichia coli clinical isolate EC94474 assessed as inhibition of bacterial growth incubated for 18 hrs by two fold broth microdilution assay; format: functional
# Escherichia coli [20] = test: Antibiotic adjuvant activity against multi-drug resistant Escherichia coli clinical isolate EC94474 assessed as fold potentiation incubated for 18 hrs in presence of minocycline by two fold broth microdilution checkerboard assay; format: functional
# Escherichia coli [21] = test: Antibiotic adjuvant activity against Escherichia coli ATCC 25922 assessed as fold potentiation incubated for 18 hrs in presence of rifampicin and CAMHB Mg2+ media by two fold broth microdilution checkerboard assay; format: functional
# Pseudomonas aeruginosa [22] = test: Antibiotic adjuvant activity against multi-drug resistant Pseudomonas aeruginosa clinical isolate PA262 assessed as fractional inhibitory concentration index incubated for 18 hrs in presence of doxycycline by two fold broth microdilution checkerboard assay; format: functional
# Enterococcus faecium = test: Antibiotic adjuvant activity against Enterococcus faecium 114278 assessed as fold potentiation incubated for 18 hrs in presence of rifampicin by two fold broth microdilution checkerboard assay; format: functional
# Pseudomonas aeruginosa [23] = test: Antibacterial activity against multi-drug resistant Pseudomonas aeruginosa clinical isolate PA262 assessed as inhibition of bacterial growth incubated for 18 hrs by two fold broth microdilution assay; format: functional
# Escherichia coli [24] = test: Antibiotic adjuvant activity against Escherichia coli ATCC 25922 assessed as doxycycline MIC incubated for 18 hrs in presence of doxycycline by two fold broth microdilution checkerboard assay; format: functional
# Escherichia coli [25] = test: Antibacterial activity against Escherichia coli ATCC 25922 assessed as inhibition of bacterial growth incubated for 18 hrs by two fold broth microdilution assay; format: functional
# Staphylococcus aureus = test: Antibiotic adjuvant activity against methicilin-resistant Staphylococcus aureus assessed as fold potentiation incubated for 18 hrs in presence of rifampicin by two fold broth microdilution checkerboard assay; format: functional
# Pseudomonas aeruginosa [26] = test: Antibiotic adjuvant activity against multi-drug resistant Pseudomonas aeruginosa clinical isolate PA259 assessed as fractional inhibitory concentration index incubated for 18 hrs in presence of Rifampicin by two fold broth microdilution checkerboard assay; format: functional
# Pseudomonas aeruginosa [27] = test: Antibiotic adjuvant activity against multi-drug resistant Pseudomonas aeruginosa clinical isolate PA264 assessed as fold potentiation incubated for 18 hrs in presence of Rifampicin by two fold broth microdilution checkerboard assay; format: functional
# Pseudomonas aeruginosa [28] = test: Antibiotic adjuvant activity against Pseudomonas aeruginosa PAO1 assessed as minocycline MIC incubated for 18 hrs in presence of minocycline by two fold broth microdilution checkerboard assay; format: functional
# Escherichia coli [29] = test: Antibiotic adjuvant activity against multi-drug resistant Escherichia coli clinical isolate 107115 assessed as rifampicin MIC incubated for 18 hrs in presence of Rifampicin by two fold broth microdilution checkerboard assay; format: functional
# Acinetobacter baumannii [30] = test: Antibiotic adjuvant activity against Acinetobacter baumannii ATCC 17978 assessed as fold potentiation incubated for 18 hrs in presence of vancomycin by two fold broth microdilution checkerboard assay; format: functional
# Escherichia coli [31] = test: Antibiotic adjuvant activity against Escherichia coli ATCC 25922 assessed as minocycline MIC incubated for 18 hrs in presence of minocycline by two fold broth microdilution checkerboard assay; format: functional
# Escherichia coli [32] = test: Antibiotic adjuvant activity against multi-drug resistant Escherichia coli clinical isolate 94393 assessed as inhibition of bacterial growth incubated for 18 hrs in presence of Rifampicin by two fold broth microdilution checkerboard assay; format: functional
# Pseudomonas aeruginosa [33] = test: Antibiotic adjuvant activity against multi-drug resistant Pseudomonas aeruginosa clinical isolate PA114228 assessed as inhibition of bacterial growth incubated for 18 hrs in presence of doxycycline by two fold broth microdilution checkerboard assay; format: functional
structure (smiles),measurement,setting,value
Cl.NC[C@H]1O[C@H](O[C@H]2[C@H](OCc3ccccc3)[C@@H](O[C@H]3O[C@H](COCc4ccccc4)[C@@H](OCc4ccccc4)[C@H](N)[C@H]3OCc3ccccc3)[C@H](N)C[C@@H]2N)[C@H](N)C[C@@H]1OCc1ccccc1,MIC,Pseudomonas aeruginosa [1],512 µg/mL
same,MIC,Pseudomonas aeruginosa [2],> 128 µg/mL
same,fold change (FC),Pseudomonas aeruginosa [3],1
same,MIC,Pseudomonas aeruginosa [4],8 µg/mL
same,fold change (FC),Pseudomonas aeruginosa [5],1
same,MIC,Pseudomonas aeruginosa [6],8 µg/mL
same,fold change (FC),Escherichia coli [7],1
same,MIC,Pseudomonas aeruginosa [8],64 µg/mL
same,MIC,Pseudomonas aeruginosa [9],16 µg/mL
same,fold change (FC),Escherichia coli [10],8
same,MIC,Escherichia coli [11],1 µg/mL
same,MIC,Acinetobacter baumannii [12],8 µg/mL
same,MIC,Pseudomonas aeruginosa [13],8 µg/mL
same,fold change (FC),Pseudomonas aeruginosa [14],2
same,MIC,Escherichia coli [15],32 µg/mL
same,fold change (FC),Acinetobacter baumannii [16],4
same,fold change (FC),Acinetobacter baumannii [17],512
same,Activity,Cell membrane,Tde
same,Activity,Escherichia coli [18],inactive
same,MIC,Escherichia coli [19],32 µg/mL
same,fold change (FC),Escherichia coli [20],64
same,fold change (FC),Escherichia coli [21],2
same,fractional inhibitory concentration index (FICI),Pseudomonas aeruginosa [22],1.063
same,fold change (FC),Enterococcus faecium,1
same,MIC,Pseudomonas aeruginosa [23],128 µg/mL
same,MIC,Escherichia coli [24],0.125 µg/mL
same,MIC,Escherichia coli [25],32 µg/mL
same,fold change (FC),Staphylococcus aureus,1
same,fractional inhibitory concentration index (FICI),Pseudomonas aeruginosa [26],1.063
same,fold change (FC),Pseudomonas aeruginosa [27],1
same,MIC,Pseudomonas aeruginosa [28],0.5 µg/mL
same,MIC,Escherichia coli [29],0.125 µg/mL
same,fold change (FC),Acinetobacter baumannii [30],8
same,MIC,Escherichia coli [31],8 µg/mL
same,MIC,Escherichia coli [32],8 µg/mL
same,MIC,Pseudomonas aeruginosa [33],8 µg/mL
